Values after ≈ are worked out from the molar mass of the structure shown. Counter-ions that a name gives are not always drawn. Like-named read-outs stand apart in the source and are kept apart here.
Experiments:
HSV-2 [1] = test: HSV-2 plaque assay in Vero E6 cells with EF eluants; format: cell-based
Protocol: Initially, experiments were undertaken to determine the in vitro efficacy of unmodified EFs that encapsulated antivirals (ACV and TDF) or are surface-modified with GRFT, against HSV-2 infection. […] The top row of each plate contained cells that were incubated with blank PLGA or PLCL EFs. […] After infection, cells were incubated with IgG to neutralize free HSV-2, and EF eluants were administered to Vero E6 cells. Appropriate controls of: [no treatment/no virus], [no treatment/virus], [blank PLGA or PLCL EFs, virus], and [free ACV, virus] were conducted. […] Similarly, fibers were assessed after 28 days to ensure bioactivity after one month in SVF. […] Only one of the three IC50 curves is shown for each in FIG. 13 for purposes of brevity.

HIV-1 = test: Env-pseudotyped virus infectivity assay of TDF EFs in TZM-bl cells; format: cell-based; conditions: EFs given 1 and 24 hr before infection
Protocol: A reporter gene expression Env-pseudotyped virus infectivity assay was used, as described previously, to measure the HIV-1 antiviral activity of the TDF PLGA and PLCL EFs. Antiviral activity was measured as a reduction in firefly Luciferase (Luc) reporter gene expression after administration of different EF concentrations 1 and 24 hr before a single round of infection in TZM-bl cells (i.e., the engineered HeLa cell clone that stably expresses CD4, CCR5, and CXCR4 receptors and contains HIV-1 Tat-regulated reporter genes for firefly luciferase and B-galactosidase). One set of 8 control wells received only cells plus virus (virus control), and another set of 8 wells received cells only (background control). After 48 hr incubation, culture medium was removed from each well, an equal volume of Bright-Glo™ reagent was added, and luminescence was measured. The EC50 was determined as the TDF-EF concentration that caused a 50% reduction in RLU relative to virus control wells after subtraction of background RLU (FIG. 14).

[2] = tested on: HIV-1 pseudovirus (CCR5-using clade A strain Q769.h5); conditions: same virus strain (Q769.h5); cited from earlier work
HSV-2 [3] = conditions: in vitro; read-out: cell-dependent EC50; cited from earlier work
HIV-1 isolates = conditions: most HIV-1 isolates; cited from earlier work
[4] = tested on: HIV-1-enveloped pseudovirus; conditions: subcutaneous administration in mice; cited from earlier work
HIV-1BaL = test: HIV-1 infection of polarized ectocervical tissue explants; format: cell-based, human
[5] = tested on: HIV-1 pseudovirus (CCR5-using clade A strain Q769.h5); test: Env-pseudotyped virus infectivity assay in TZM-bl cells (luciferase); format: cell-based; conditions: similar administration durations
Text: Materials. Carboxyl-terminated 50:50 poly(lactic-co-glycolic acid) (PLGA, 0.55-0.75 dL/g, 31-57 k MW) was purchased from Lactel Absorbable Polymers (Cupertino, Calif.). Dichloromethane (DCM), dimethyl sulfoxide (DMSO), and the MTT assay kit were obtained from Sigma Aldrich (St Louis, Mo.). 1,1,1,3,3,3-hexafluoro-2-propanol (HFIP) was obtained from Fisher Scientific (Pittsburgh, Pa.). GRFT (MW 12.7 kDa) was produced in Nicotiana benthamiana as previously reported. Fetal bovine serum (FBS) and antibiotics (penicillin/streptomycin) were purchased from VWR. Dulbecco's modified Eagle's medium (DMEM) and keratinocyte serum-free medium were purchased from Invitrogen. The EDC-NHS and enzyme-linked immunosorbent assay (ELISA) kits were purchased from ThermoFisher. Simulated vaginal fluid (SVF) was prepared as described previously. […]
Cell lines. […] Vaginal keratinocyte, VK2/E6E7 (VK2); ectocervical, Ect1/E6E7 (Ect1); and endocervical, End1/E6E7 (End1) cell lines, obtained from ATCC, were evaluated in cytotoxicity experiments. […]
In vitro antiviral activity of GRFT-EFs. […] The anti-HIV activity of the GRFT-EFs was measured as a reduction in firefly luciferase (Luc) reporter gene expression in the presence of GRFT-EFs compared to unmodified EFs after a single round of infection in TZM-bl cells. […]

HSV-2 [6] = conditions: in vivo; cited from earlier work

Molecule: Nc1nc2c(ncn2COCCO)c(=O)[nH]1 [free ACV, acyclovir]
- IC50 (HSV-2 [1]; Human alphaherpesvirus 2, Vero C1008, 72 h, fiber eluant collected after 3 days, read-out: average IC50): 0.287 µg/mL (≈ 1.27 µM)
- IC50 (HSV-2 [1]; Human alphaherpesvirus 2, Vero C1008, 672 h, after 28 days in SVF, read-out: IC50): 0.293 µg/mL (≈ 1.3 µM)
- IC50 (HSV-2 [1]; Human alphaherpesvirus 2, Vero C1008, eluant released between 21 and 28 days, read-out: IC50): 0.293 µg/mL (≈ 1.3 µM)

Molecule: CC(C)OC(=O)OCOP(=O)(CO[C@H](C)Cn1cnc2c(N)ncnc21)OCOC(=O)OC(C)C [free TDF, tenofovir disoproxil fumarate]
- protection against HIV-1 (HIV-1): complete protection against HIV-1

Molecule: griffithsin [free GRFT]
- previous literature measurement for free GRFT [2]: 157 ng/mL
- EC50 (HSV-2 [3]): 2.3 to 143 µM
- in vitro inhibitory activity (EC50) (HIV-1 isolates): mid-pM to low-nM range
- antiviral activity of serum from treated animals [4]: retained antiviral activity
- block of HIV-1 infection in ectocervical explants (HIV-1BaL): blocks HIV-1 infection
- concentration down to which HIV-1 infection was blocked (HIV-1BaL; ectocervical tissue, 10^4 TCID50 HIV-1BaL overnight, 21 days culture): 10 µM
- IC50 of free GRFT [5]: 233±2.7 ng GRFT/mL
- HSV-2 cell entry (HSV-2 [6]): modestly inhibited
- HSV-2 cell-to-cell spread (HSV-2 [6]): completely inhibiting
